Data from ChEMBL document CHEMBL2073841, “ATP-dependent transport of aflatoxin B1 and its glutathione conjugates by the product of the multidrug resistance protein (MRP) gene” (Mol Pharmacol, 1997).

Target: MRP1 (Multidrug resistance-associated protein 1) (Homo sapiens, UniProt P33527)
Assay: TP_TRANSPORTER: uptake in membrane vesicle from MRP1-expressing HeLa cells
Assay type: functional, cell membranes
Conditions: membrane vesicles from MRP1-expressing HeLa cells

Chain of MRP1 (Multidrug resistance-associated protein 1) (P33527 whole entry): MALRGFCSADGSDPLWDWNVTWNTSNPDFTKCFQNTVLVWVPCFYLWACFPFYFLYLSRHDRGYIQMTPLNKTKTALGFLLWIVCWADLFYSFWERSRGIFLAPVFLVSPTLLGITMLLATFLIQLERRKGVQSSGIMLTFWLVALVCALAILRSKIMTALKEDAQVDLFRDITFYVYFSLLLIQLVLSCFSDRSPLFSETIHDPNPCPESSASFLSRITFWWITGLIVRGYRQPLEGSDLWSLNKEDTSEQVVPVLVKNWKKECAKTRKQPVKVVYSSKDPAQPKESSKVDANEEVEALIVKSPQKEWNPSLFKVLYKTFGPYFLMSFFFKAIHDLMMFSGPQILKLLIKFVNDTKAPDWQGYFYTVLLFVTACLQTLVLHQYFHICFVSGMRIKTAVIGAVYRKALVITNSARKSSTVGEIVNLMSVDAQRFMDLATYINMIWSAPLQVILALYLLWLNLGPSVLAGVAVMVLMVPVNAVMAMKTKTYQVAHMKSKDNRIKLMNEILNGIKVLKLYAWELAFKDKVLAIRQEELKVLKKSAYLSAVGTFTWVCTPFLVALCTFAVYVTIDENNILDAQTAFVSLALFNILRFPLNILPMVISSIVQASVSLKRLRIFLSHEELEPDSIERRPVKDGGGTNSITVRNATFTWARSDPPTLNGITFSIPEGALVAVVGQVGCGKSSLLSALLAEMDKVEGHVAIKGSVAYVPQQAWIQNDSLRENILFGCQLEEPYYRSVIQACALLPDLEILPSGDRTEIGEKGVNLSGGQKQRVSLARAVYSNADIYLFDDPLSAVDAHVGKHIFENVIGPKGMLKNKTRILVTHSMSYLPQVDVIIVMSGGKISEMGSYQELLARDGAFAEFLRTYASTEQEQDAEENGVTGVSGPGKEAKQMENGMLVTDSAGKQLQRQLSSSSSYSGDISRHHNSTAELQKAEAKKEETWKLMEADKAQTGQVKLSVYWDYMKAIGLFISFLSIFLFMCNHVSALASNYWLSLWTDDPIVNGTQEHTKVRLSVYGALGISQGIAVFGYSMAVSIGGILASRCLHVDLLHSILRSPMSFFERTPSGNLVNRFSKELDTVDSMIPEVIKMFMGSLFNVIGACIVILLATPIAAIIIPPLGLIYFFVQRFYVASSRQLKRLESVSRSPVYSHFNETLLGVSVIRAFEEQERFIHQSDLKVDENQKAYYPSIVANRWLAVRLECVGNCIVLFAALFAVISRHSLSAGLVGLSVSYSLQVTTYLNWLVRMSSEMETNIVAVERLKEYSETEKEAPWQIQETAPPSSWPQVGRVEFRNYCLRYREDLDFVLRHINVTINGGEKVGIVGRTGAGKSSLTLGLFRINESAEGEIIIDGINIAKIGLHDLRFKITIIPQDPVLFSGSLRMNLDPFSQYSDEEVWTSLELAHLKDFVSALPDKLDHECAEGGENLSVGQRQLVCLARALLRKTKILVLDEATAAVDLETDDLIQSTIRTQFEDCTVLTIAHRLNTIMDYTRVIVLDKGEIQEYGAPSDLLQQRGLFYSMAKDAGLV

`COc1cc2c(c3oc(=O)c4c(c13)CCC4=O)[C@H]1[C@@H](O2)O[C@H](SC[C@@H](NC(=O)CC[C@H](N)C(=O)O)C(=O)NCC(=O)O)[C@H]1O` showed a Km of 0.189 µM.
